Among the data in US12673954B2 (BRISTOL-MYERS SQUIBB COMPANY, priority 2021, dated 2026) are EC50 values, retold here.

Structures are written as SMILES. Read-outs that look alike come from different tables or passages of the source.

Assay [1] relates to IRF pathway, THP1-Dual™ cells. The experiment in a line: STING reporter assay in THP1-Dual cells, IRF pathway (Lucia luciferase, QUANTI-Luc). Format: cell-based, human. Conditions: THP1-Dual cells, 10% human plasma, 20 hours, Lucia luciferase, 100% activation = 100 μM cGAMP, read-out: IRF (EC50 μM). From the text:
(§1) THP1-Dual™ cells were derived from the human THP-1 monocyte cell line by stable integration of two inducible reporter constructs. To this end, THP1-Dual™ cells allow the simultaneous study of the NF-κB pathway, by monitoring the activity of SEAP, and the IRF pathway by assessing the activity of a secreted luciferase (Lucia). Both reporter proteins are readily measurable in the cell culture supernatant when using QUANTI-Blue™, a SEAP detection reagent, and QUANTI-Luc™, a luciferase detection reagent.
(§2) THP1-Dual™ cells induce the activation of NF-κB in response to STING agonists. They also trigger the IRF pathway upon stimulation with STING agonists, such as cGAMP. Here, the THP-1-Dual cells were used to assess STING specific binders for function on the cellular level.
(§3) Serial dilutions of compounds in DMSO were added to low volume 384 well plates at 100 nl/well using an ECHO acoustic dispenser (Labcyte, model 550) to achieve final starting concentration of 100 μM in cell suspension. […] One column of the plate was reserved for treatment with cGAMP at 100 μM for 100% activation calculation and one column for no treatment (DMSO only) for baseline activation. Plates were then incubated in 37° C. incubator at 5% CO2 for 20 hours.
(§4) Plates were read on the Envision (Perkin Elmer) at 620 nm wavelength (OD620). In the luciferase assay, 5 μl of Quantiluc (Invivogen, Rep-qlc2) is added to white 384 well plates seeded with THP1 cells and read at 5 minutes on the Envision (Perkin Elmer) using a luminescence protocol (RLU). 100% activation was determined by value (RLU) of THP-1 Dual STING cells stimulated with 100 μM cGAMP (Invivogen, cat #TLRL-NACGA23-5).

Assay [2] has as its system NF-κB pathway, THP1-Dual™ cells. Briefly: STING reporter assay in THP1-Dual cells, NF-κB pathway (SEAP, QUANTI-Blue). Format: cell-based, human. The following applies: THP1-Dual cells, 10% human plasma, 20 hours, SEAP, 100% activation = 100 μM cGAMP, read-out: NFkB (EC50 μM).
Excerpt: as §1, §2, §3, §4
(A reporter such as luciferase makes a cellular process visible.)

In the case of `COC(OC(=O)c1cc(C#N)cc2cc(CNC(=O)c3cnn4cccnc34)oc12)C(F)(F)F` (single isomer, unassigned) [EXAMPLE 348, 2,2,2-Trifluoro-1-methoxyethyl 5-cyano-2-((pyrazolo[1,5-a]pyrimidine-3-carboxamido)methyl)benzofuran-7-carboxylate], the EC50 in assay [1] is 5.6 µM; in assay [2], 3.9 µM.
As for `CC(OC(=O)c1cc(C(F)(F)F)cc2cc(CNC(=O)c3cnn4cccnc34)oc12)C(F)(F)F` (single isomer, unassigned) [EXAMPLE 349, 1,1,1-Trifluoropropan-2-yl 2-((pyrazolo[1,5-a]pyrimidine-3-carboxamido)methyl)-5-(trifluoromethyl)benzofuran-7-carboxylate], the EC50 was 3.8 µM in assay [1] and 3.5 µM in assay [2].
For `CC(OC(=O)c1cc(C(F)(F)F)cc2cc(CNC(=O)c3cnn4cccnc34)oc12)C(F)(F)F` (single isomer, unassigned) [EXAMPLE 350, 1,1,1-Trifluoropropan-2-yl 2-((pyrazolo[1,5-a]pyrimidine-3-carboxamido)methyl)-5-(trifluoromethyl)benzofuran-7-carboxylate], in that order: 17 µM and 54 µM.
On to `COC(OC(=O)c1cc(C(F)(F)F)cc2cc(CNC(=O)c3cnn4cccnc34)oc12)C(F)(F)F` (single isomer, unassigned) [EXAMPLE 351, 2,2,2-Trifluoro-1-methoxyethyl 2-((pyrazolo[1,5-a]pyrimidine-3-carboxamido)methyl)-5-(trifluoromethyl)benzofuran-7-carboxylate], for which the EC50 in assay [1] (Homo sapiens, THP1-Dual, 20 h) turned out to be 1.9 µM; in assay [2] (Homo sapiens, THP1-Dual, 20 h) it was 2.4 µM.
On to `COC(OC(=O)c1cc(C(F)(F)F)cc2cc(CNC(=O)c3cnn4cccnc34)oc12)C(F)(F)F` (single isomer, unassigned) [EXAMPLE 352, 2,2,2-Trifluoro-1-methoxyethyl 2-((pyrazolo[1,5-a]pyrimidine-3-carboxamido)methyl)-5-(trifluoromethyl)benzofuran-7-carboxylate], for which the EC50 in assay [1] is 1.9 µM; in assay [2], 3.4 µM.
As for `COc1ccn2ncc(C(=O)NCc3cc4cc(Cl)cc(C(=O)OC(C)C(F)(F)F)c4o3)c2n1` (single isomer, unassigned) [EXAMPLE 368, 1,1,1-Trifluoropropan-2-yl 5-chloro-2-((5-methoxypyrazolo[1,5-a]pyrimidine-3-carboxamido)methyl)benzofuran-7-carboxylate], the EC50 in assay [1] (Homo sapiens, THP1-Dual, 20 h) is 11 µM; in assay [2] (Homo sapiens, THP1-Dual, 20 h) it was 11 µM.
Take `COC(=O)c1cc(C)cc2cc(C(C)NC(=O)c3cnn4cccnc34)oc12` (single isomer, unassigned) [Example 97, Methyl-5-methyl-2-(1-(pyrazolo[1,5-a]pyrimidine-3-carboxamido)ethyl)benzofuran-7-carboxylate]: the EC50 in assay [1] (Homo sapiens, THP1-Dual, 20 h) is 2.1 µM; in assay [2] (Homo sapiens, THP1-Dual, 20 h) it was 1.5 µM.
As to `COC(=O)c1cccc2cc(CN3Cc4cccnc4C3=O)oc12` [EXAMPLE 1, Methyl 2-((7-oxo-5,7-dihydro-6H-pyrrolo[3,4-b]pyridin-6-yl)methyl)benzofuran-7-carboxylate], the EC50 in assay [1] (Homo sapiens, THP1-Dual, 20 h) is 96 µM; in assay [2] (Homo sapiens, THP1-Dual, 20 h) it was 98 µM.
For `COC(=O)c1cccc2cc(CN3Cc4c(F)cncc4C3=O)oc12` [EXAMPLE 3, Methyl 2-((7-fluoro-3-oxo-1,3-dihydro-2H-pyrrolo[3,4-c]pyridin-2-yl)methyl)benzofuran-7-carboxylate], in that order: 51 µM and 92 µM.
For `COC(=O)c1cccc2cc(CN3Cc4ccnc(F)c4C3=O)oc12` [EXAMPLE 4, Methyl 2-((4-fluoro-3-oxo-1,3-dihydro-2H-pyrrolo[3,4-c]pyridin-2-yl)methyl)benzofuran-7-carboxylate], the EC50 in assay [1] (Homo sapiens, THP1-Dual, 20 h) is 13 µM; in assay [2] (Homo sapiens, THP1-Dual, 20 h), 14 µM.
Regarding `COC(=O)c1cccc2cc(CN3CCc4ccncc4C3=O)oc12` [EXAMPLE 5, Methyl 2-((1-oxo-3,4-dihydro-2,7-naphthyridin-2(1H)-yl)methyl)benzofuran-7-carboxylate], the 50% effective concentration (EC50) in assay [1] (Homo sapiens, THP1-Dual, 20 h) is 5.7 µM; in assay [2] (Homo sapiens, THP1-Dual, 20 h), 6.3 µM.
Take `COC(=O)c1cccc2cc(Cn3cnc4ccncc4c3=O)oc12` [EXAMPLE 6, Methyl 2-((4-oxopyrido[4,3-d]pyrimidin-3(4H)-yl)methyl)benzofuran-7-carboxylate]: the EC50 in assay [1] (Homo sapiens, THP1-Dual, 20 h) came to 5.1 µM; in assay [2] (Homo sapiens, THP1-Dual, 20 h), 3.1 µM.
For `COC(=O)c1cccc2cc(Cn3ccc4ccncc4c3=O)oc12` [EXAMPLE 7, Methyl 2-((1-oxo-2,7-naphthyridin-2(1H)-yl)methyl)benzofuran-7-carboxylate], the EC50 in assay [1] (Homo sapiens, THP1-Dual, 20 h) came to 4.3 µM; in assay [2] (Homo sapiens, THP1-Dual, 20 h), 4.1 µM.
`COC(=O)c1cccc2cc(CNC(=O)c3cnccn3)oc12` [EXAMPLE 8, Methyl 2-((pyrazine-2-carboxamido)methyl)benzofuran-7-carboxylate]: the EC50 turned out to be 21 µM in assay [1] (Homo sapiens, THP1-Dual, 20 h) and 18 µM in assay [2] (Homo sapiens, THP1-Dual, 20 h).
Regarding `COC(=O)c1cccc2cc(CNC(=O)c3cnn4cccnc34)oc12` [EXAMPLE 9, Methyl 2-((pyrazolo[1,5-a]pyrimidine-3-carboxamido)methyl) benzofuran-7-carboxylate], the EC50 in assay [1] was found to be 2.1 µM; in assay [2], 1.8 µM.
For `COC(=O)c1cccc2cc(CNC(=O)c3cnn4ccc(C)nc34)oc12` [EXAMPLE 10, Methyl 2-((5-methylpyrazolo[1,5-a]pyrimidine-3-carboxamido)methyl) benzofuran-7-carboxylate], in that order: 7.5 µM and 7.6 µM.
With `COC(=O)c1cccc2cc(CNC(=O)c3cnn4cc(C)cnc34)oc12` [EXAMPLE 11, Methyl 2-((6-methylpyrazolo[1,5-a]pyrimidine-3-carboxamido)methyl) benzofuran-7-carboxylate], the values for the half-maximal effective concentration (EC50) in assay [1] and in assay [2] were 6.1 µM and 6.7 µM, respectively.
As to `COC(=O)c1cccc2cc(CNC(=O)c3cnn4c(C)ccnc34)oc12` [EXAMPLE 12, Methyl 2-((7-methylpyrazolo[1,5-a]pyrimidine-3-carboxamido)methyl) benzofuran-7-carboxylate], the EC50 stood at 33 µM in assay [1] and 39 µM in assay [2].
For `COC(=O)c1cccc2cc(CNC(=O)c3cnn4cc(Cl)cnc34)oc12` [EXAMPLE 13, Methyl 2-((6-chloropyrazolo[1,5-a]pyrimidine-3-carboxamido)methyl) benzofuran-7-carboxylate], in that order: 8.7 µM and 11 µM.
In the case of `COC(=O)c1cccc2cc(CNC(=O)c3cncc4cccnc34)oc12` [EXAMPLE 14, Methyl 2-((1,6-naphthyridine-8-carboxamido)methyl)benzofuran-7-carboxylate], the EC50 in assay [1] (Homo sapiens, THP1-Dual, 20 h) stood at 3.8 µM; in assay [2] (Homo sapiens, THP1-Dual, 20 h), 6 µM.
For `COC(=O)c1cccc2cc(CNC(=O)c3cncnc3)oc12` [EXAMPLE 15, Methyl 2-((pyrimidine-5-carboxamido)methyl)benzofuran-7-carboxylate], in that order: 44 µM and 39 µM.
Turning to `COC(=O)c1cccc2cc(CNC(=O)c3cncnc3OC)oc12` [EXAMPLE 16, Methyl 2-((4-methoxypyrimidine-5-carboxamido)methyl)benzofuran-7-carboxylate], the EC50 in assay [1] (Homo sapiens, THP1-Dual, 20 h) amounted to 6.8 µM; in assay [2] (Homo sapiens, THP1-Dual, 20 h), 9.3 µM.
For `COC(=O)c1cccc2cc(Cn3cccc(-c4cnco4)c3=O)oc12` [EXAMPLE 17, Methyl 2-((3-(oxazol-5-yl)-2-oxopyridin-1(2H)-yl)methyl)benzofuran-7-carboxylate], in that order: 48 µM and 73 µM.
For `COC(=O)c1cccc2cc(Cn3cccc(C#N)c3=O)oc12` [EXAMPLE 18, Methyl 2-((3-cyano-2-oxopyridin-1(2H)-yl)methyl)benzofuran-7-carboxylate], in that order: 79 µM and 97 µM.
In the case of `COC(=O)c1cccc2cc(Cn3ccc4[nH]ncc4c3=O)oc12` [EXAMPLE 19, Methyl 2-({4-oxo-1H,4H,5H-pyrazolo[4,3-c]pyridin-5-yl}methyl)-1-benzofuran-7-carboxylate], the EC50 in assay [1] (Homo sapiens, THP1-Dual, 20 h) is 47 µM; in assay [2] (Homo sapiens, THP1-Dual, 20 h) it was 95 µM.
With `COC(=O)Cc1cccc2cc(CNC(=O)c3cnn4cccnc34)oc12` [EXAMPLE 20, Methyl 2-(2-((pyrazolo[1,5-a]pyrimidine-3-carboxamido)methyl)benzofuran-7-yl)acetate], the EC50 in assay [1] (Homo sapiens, THP1-Dual, 20 h) amounted to 48 µM; in assay [2] (Homo sapiens, THP1-Dual, 20 h), 49 µM.
For `COC(=O)c1cccc2c(Cl)c(CN3CCc4ccncc4C3=O)oc12` [EXAMPLE 21, Methyl 3-chloro-2-((1-oxo-3,4-dihydro-2,7-naphthyridin-2(1H)-yl)methyl)benzofuran-7-carboxylate], in that order: 2.9 µM and 3.1 µM.

For orientation: EC50 means the midpoint of the concentration-response curve.
